Laboratory results as given in patent US20070203242A1, “Method for treating gastric reflux” (priority 2006, published 2007).

How the values were obtained:
[1] = tested on: patients with gastric reflux / heartburn; experiment: Patient reports of relief of gastric reflux / heartburn after oral L-arginine compositions; format: in vivo, human; conditions: for relief of gastric reflux due to stress: one patient
Excerpt: A patient having ulcerations in the upper small intestine who routinely took omeprazole or lansoprazole complained of heartburn on laying down.

[2] = tested on: small bowel ulcers; conditions: rats; yeast RNA together with L-arginine; cited from earlier work
[3] = tested on: aspirin induced gastric lesions; conditions: dose 62.5 mg/kg; cited from earlier work
[4] = tested on: indomethacin induced gastric lesions; conditions: dose 15.6 mg/kg; cited from earlier work

SMILES | L-arginine required for complete control of the gastric reflux ([1]; daily, severely afflicted patient) | time to complete cessation of all symptoms ([1]; one patient with reflux due to stress, L-arginine 1 gram dose) | relief of gastric reflux due to stress ([1]; L-arginine 1 gram dose) | decrease in ulcer number [2] | prevention of aspirin induced gastric lesions [3] | prevention of indomethacin induced gastric lesions [4]
N=C(N)NCCC[C@H](N)C(=O)O [L-arginine] | 1 to 4 g | complete cessation of all symptoms within one minute | immediate relief | 34% | – | –
O=C([O-])[O-].[Ca+2] [calcium carbonate antacids, calcium carbonate, reference compound] | – | – | no relief | – | – | –
NC(=O)CC[C@H](N)C(=O)O [Glutamine, L-glutamine] | – | – | – | – | completely ineffective | ineffective
